Test results: patent publication US4293483A, “Derivatives of A-30912A nucleus” (priority 1980, dated 1981)
≈ marks a conversion by molar mass, not a printed value. Where “and” joins values, the source holds several entries; their conditions need not be identical. Equal values may be shown once. Read-outs that look alike come from different tables or passages of the source. Numbered stars: 1 amine (or outer) side, 2 acyl side, 3 side chain; on linkers, the order of the positions; unused ones are H or OH. Bridge positions count the residues as written; N and C are the ends. Square brackets hold non-standard residues; d marks the D form. Peptide text beside a SMILES is read from it. * marks the point of attachment. Orn(4R-OH,5R-OH) = O=C([C@H](C[C@@H](O)[C@@H](O)N[*:3])N[*:1])[*:2]; hTyr(3S-OH,4S-OH) = N[C@H](C(=O)O)[C@H](O)[C@@H](O)c1ccc(O)cc1; Pro(3S-OH,4S-Me) = C[C@H]1CN[C@H](C(=O)O)[C@H]1O; X1 = O=C(c1cc(I)c(N[*:1])c(I)c1)[*:2]; X5 = O=C(c1cc(Cl)cc(N[*:1])c1Cl)[*:2]; X6 = O=C(C=Cc1ccc(N[*:1])cc1)[*:2]; Hyp = O=C(O)[C@@H]1C[C@@H](O)CN1; X2 = O=C(Cc1ccc(N[*:1])cc1)[*:2]; Lauroyl = CCCCCCCCCCCC(=O)*; 4Abz = Nc1ccc(C(=O)O)cc1; Aun = NCCCCCCCCCCC(=O)O; Ava = NCCCCC(=O)O

Assays:
[1] = test system: Saccharomyces pastorianus X-52; assay: Agar plate disc diffusion test, zone of inhibition; format: cell-based; conditions: Saccharomyces pastorianus X-52, 1 mg/ml suspension in methanol, 7 mm disc, 24-48 hours at 25-37° C.; for zone of inhibition at 1000 µg/mL: Saccharomyces pastorianus, X52, 48 h, read-out: Size of Zone of Inhibition
Method: (§3) ^(a) Compounds were tested as suspension in methanol.
(§4) were tested at a concentration of 1 mg/ml by a dipping 7mm disc into the
(§5) suspension and placing it on the agar surface. Incubation: 24-48 hours at

[2] = test system: Candida albicans A-26; assay: Agar plate disc diffusion test, MIC per disc; format: cell-based; conditions: 0.01M sodium borate, pH 7.5, 24 hours at 30° C.
Method: (§6) *Compounds were suspended in 0.01M sodium borate solution, pH 7.5.
(§7) compounds were tested at 20 μg/disc at top level and at twofold
(§8) dilutions until end points were reached.

[3] = test system: Candida albicans A-26; assay: Therapeutic activity against Candida albicans A-26 infection in mice; format: in vivo; conditions: A26, sc
Method: The results of in vivo tests to evaluate the effectiveness of the compound of Examples 61-81, 86 and 88 against an infection caused by Candida albicans A-26 in mice are given in Table 7, where activity is measured by the ED50 value (the dose in mg/kg. required to cure 50% of the test animals). Where an ED50 value was not obtained, activity is indicated by the lowest dose at which a significant anti-fungal effect is observed. In this test, groups of male albino mice (specific pathogen free), weighing 18 to 20 grams, are infected intravenously with Candida albicans A-26. The animals are X-irradiated 24 hours prior to infection at about 50 roentgens per minute for 8 minutes (400 total dose) to reduce immune responses to the infecting organism. At 0, 4, and 24 hours post infection each group of mice is given graded doses subcutaneously of the test compound as a suspension in 33% polyethylene glycol-water. The day of death for each animal is recorded.
*Dosage Schedule: 40, 20, 15, and 10 mg/kg. Dosages given 0, 4, and 24
hours post injection as suspension of test compound in 30% PEGH2 O.
Number of mice receiving test compounds at each dosage level: 6 mice per
group. Number of mice in control (untreated) group: 10 mice per group.
**As measured by increase in survival time of treated animals versus
control, calculated by method of Reed V. Mueuch, American J. Hygiene, 493

[4] = test system: Trychophyton mentagrophytes #6; assay: Agar plate disc diffusion test, MIC per disc; format: cell-based; conditions: 0.01M sodium borate, pH 7.5, 24 hours at 30° C.
Method: as §6, §7, §8

[5] = test system: Trichophyton mentagrophytes; assay: Agar plate disc diffusion test, zone of inhibition; format: cell-based; conditions: 7 mm disc
Method: as §3, §4, §5

[6] = test system: Candida albicans A-26; assay: Agar plate disc diffusion test, zone of inhibition; format: cell-based; conditions: 7 mm disc; for Size of Zone of Inhibition: 1 mg/ml suspension in methanol, 24-48 hours at 25-37° C., no regrowth mark
Method: as §3, §4, §5

[7] = mouse, in vivo, 416 mg/kg, 240 min
Method: (§9) In this test, mice are gavaged with a dose of 416 mg/kg of the test compound suspended in 33% PEG 400-water. At time intervals, blood samples are taken from the orbital sinus and are assayed for antibiotic activity as follows: A 7 mm. disc containing 20 μl of whole blood is placed on agar seeded with Aspergillus montevidensis A35137. After 40 hours incubation at 30° C. zones of inhibition from the blood samples are compared to a standard obtained from the test compound, and the amount of compound in the blood sample is calculated.

[8] = test system: Candida albicans SBH 29; assay: Agar dilution assay; format: cell-based; conditions: SBH29, agar dilution, strain SBH 29, read-out: MIC
Method: (§1) Tables 4 and 5 give the results of the testing in vitro of the compounds of Examples 61-81 by agar-plate disc-diffusion methods. In Table 4 activity is measured by the size (diameter in mm.) of the observed zone of inhibition of the microorganism produced by the test compound. In Table 5, activity is measured by the minimal inhibitory concentration (MIC) of the substance (μg/disc) required to inhibit growth of the test organism. Table 6 gives the results of the testing in vitro of the N-(n-dodecanoyl)-p-aminobenzoyl derivative of A30912A nucleus (Formula III, R^1 is N-(dodecanoyl)-p-aminobenzoyl) against five strains of Candida albicans by the agar dilution method. In Table 6 activity is measured by the minimal inhibitory concentration (MIC) of the substance (μg/ml) required to inhibit the test organism.
(§2) In vitro activity of the N-(n-dodecanoyl)-p-aminobenzoyl (Example 64) and the N-(n-dodecanoyl)-5-amino-n-pentanoyl (Example 62) derivatives of A-30912A nucleus against 5 strains of Candida albicans by the agar dilution assay.

[9] = test system: Candida albicans A26; assay: Agar dilution assay; format: cell-based; conditions: agar dilution, strain A26, read-out: MIC
Method: as §1, §2

[10] = test system: Candida albicans SBH 16; assay: Agar dilution assay; format: cell-based; conditions: SBH16, agar dilution, strain SBH 16, read-out: MIC
Method: as §1, §2

[11] = test system: Candida albicans SBH 31; assay: Agar dilution assay; format: cell-based; conditions: SBH31, agar dilution, strain SBH 31, read-out: MIC
Method: as §1, §2

[12] = test system: Candida albicans SBH 28; assay: Agar dilution assay; format: cell-based; conditions: SBH28, agar dilution, strain SBH 28, read-out: MIC
Method: as §1, §2

[13] = test system: Neurospora Crassa 846; assay: Agar plate disc diffusion test, zone of inhibition; format: cell-based; conditions: 7 mm disc; for zone of inhibition at 1000 µg/mL: Neurospora crassa
Method: as §3, §4, §5

[14] = in vivo; conditions: mouse, po, 416 mg/kg
Method: as §9

[15] = Blood levels after oral administration in mice
Method: as §9

[16] = subcutaneous at 0, 4 and 24 hours post infection, dose to cure 50% of test animals, by increase in survival time, read-out: ED50
[17] = subcutaneous at 0, 4 and 24 hours post infection, lowest dose with significant anti-fungal effect, read-out: Lowest Active Dose
[18] = 1 mg/ml, * measurable zone of inhibition with regrowth of organism around disc, read-out: Size of Zone of Inhibition (*)
[19] = CRASSA846, Neurospora Crassa 846, 1 mg/ml, * measurable zone of inhibition with regrowth of organism around disc, read-out: Size of Zone of Inhibition (*)
[20] = 1 mg/ml, * measurable zone of inhibition with regrowth of organism around disc
[21] = 48 h, 1 mg/ml suspension in methanol, 24-48 hours at 25-37° C., no regrowth mark, read-out: Size of Zone of Inhibition
[22] = read-out: Lowest Active Dose, subcutaneous at 0, 4 and 24 hours post infection, lowest dose with significant anti-fungal effect

MIC [2] | MIC [4] [μg/disc] | concentration at 4 h [14] [ng/mL] | Compound | zone of inhibition at 1000 µg/mL [1] [mm] | ED50 [3, 16] [mg/kg] | minimal effective dose [3, 17] [mg/kg] | zone of inhibition at 1000 µg/mL [5, 18] [mm] | Size of Zone of Inhibition [6] | zone of inhibition at 1000 µg/mL [13, 19] [mm] | also measured
1.25 μg/disc | 0.078 | – | CCCCCCCCCCCC(=O)NCCCCC(=O)N[C@H]1C[C@@H](O)[C@@H](O)NC(=O)[C@@H]2[C@@H](O)[C@@H](C)CN2C(=O)[C@H]([C@@H](C)O)NC(=O)[C@H]([C@H](O)[C@@H](O)c2ccc(O)cc2)NC(=O)[C@@H]2C[C@@H](O)CN2C(=O)[C@H]([C@@H](C)O)NC1=O [Example 62, N-(n-dodecanoyl)-5-amino-n-pentanoyl derivative of A-30912A nucleus] ({Lauroyl-Ava}-[Orn(4R-OH,5R-OH)]T[Hyp][hTyr(3S-OH,4S-OH)]T[Pro(3S-OH,4S-Me)]; lactam 1-C) | 15 | 22 | 20 | 60 | 25 mm | 27 | Blood Levels [7]: 0 ng/mL; MIC [8]: 2.5 µg/mL (≈ 2.32 µM); MIC [9]: 1.25 µg/mL (≈ 1.16 µM); MIC [10]: 2.5 µg/mL (≈ 2.32 µM); MIC [11]: 2.5 µg/mL (≈ 2.32 µM); MIC [12]: 2.5 µg/mL (≈ 2.32 µM)
2.5 μg/disc and 1.25 μg/disc | 0.156 | 400 | CCCCCCCCCCCC(=O)NCCCCCCCCCCC(=O)N[C@H]1C[C@@H](O)[C@@H](O)NC(=O)[C@@H]2[C@@H](O)[C@@H](C)CN2C(=O)[C@H]([C@@H](C)O)NC(=O)[C@H]([C@H](O)[C@@H](O)c2ccc(O)cc2)NC(=O)[C@@H]2C[C@@H](O)CN2C(=O)[C@H]([C@@H](C)O)NC1=O [Example 63] ({Lauroyl-Aun}-[Orn(4R-OH,5R-OH)]T[Hyp][hTyr(3S-OH,4S-OH)]T[Pro(3S-OH,4S-Me)]; lactam 1-C) | 15 | > 40 | > 40 | 55 | 24 mm and 25 mm | 28 | Size of Zone of Inhibition [1]: 18 mm; Size of Zone of Inhibition (*) [5, 20]: 63 mm; zone of inhibition at 1000 µg/mL [5, 21]: 56 mm; Blood Levels [7]: 0 ng/mL; Size of Zone of Inhibition ([13]; Neurospora Crassa 846, 1 mg/ml suspension in methanol, 24-48 hours at 25-37° C., no regrowth mark): 28 mm; zone of inhibition at 1000 µg/mL ([13]; CRASSA846, 48 h, Neurospora Crassa 846, 1 mg/ml suspension in methanol, 24-48 hours at 25-37° C., no regrowth mark, read-out: Size of Zone of Inhibition): 35 mm
1.25 μg/disc | 0.078 | 340 | CCCCCCCCCCCC(=O)Nc1c(I)cc(C(=O)N[C@H]2C[C@@H](O)[C@@H](O)NC(=O)[C@@H]3[C@@H](O)[C@@H](C)CN3C(=O)[C@H]([C@@H](C)O)NC(=O)[C@H]([C@H](O)[C@@H](O)c3ccc(O)cc3)NC(=O)[C@@H]3C[C@@H](O)CN3C(=O)[C@H]([C@@H](C)O)NC2=O)cc1I [Example 68] (Lauroyl-[X1][Orn(4R-OH,5R-OH)]T[Hyp][hTyr(3S-OH,4S-OH)]T[Pro(3S-OH,4S-Me)]; lactam 2-C) | 17 | > 40 | 40 | – | 25 mm | 30 | zone of inhibition at 1000 µg/mL [5, 21]: 60 mm
2.5 μg/disc | 0.078 | 340 | CCCCCCCCCCCC(=O)Nc1ccc(CC(=O)N[C@H]2C[C@@H](O)[C@@H](O)NC(=O)[C@@H]3[C@@H](O)[C@@H](C)CN3C(=O)[C@H]([C@@H](C)O)NC(=O)[C@H]([C@H](O)[C@@H](O)c3ccc(O)cc3)NC(=O)[C@@H]3C[C@@H](O)CN3C(=O)[C@H]([C@@H](C)O)NC2=O)cc1 [Example 72] (Lauroyl-[X2][Orn(4R-OH,5R-OH)]T[Hyp][hTyr(3S-OH,4S-OH)]T[Pro(3S-OH,4S-Me)]; lactam 2-C) | 20 | > 40 | 40 | 55 | 19 mm | 30 | –
1.25 μg/disc | < 0.039 | 1310 | CCCCCCCCCCCC(=O)Nc1ccc(C=CC(=O)N[C@H]2C[C@@H](O)[C@@H](O)NC(=O)[C@@H]3[C@@H](O)[C@@H](C)CN3C(=O)[C@H]([C@@H](C)O)NC(=O)[C@H]([C@H](O)[C@@H](O)c3ccc(O)cc3)NC(=O)[C@@H]3C[C@@H](O)CN3C(=O)[C@H]([C@@H](C)O)NC2=O)cc1 [Example 73] (Lauroyl-[X6][Orn(4R-OH,5R-OH)]T[Hyp][hTyr(3S-OH,4S-OH)]T[Pro(3S-OH,4S-Me)]; lactam 2-C) | 17 | 24 | 20 | 24 | – | 29 | Size of Zone of Inhibition (*) [6, 20]: 60 mm

Compound | MIC [2] | MIC [4] [μg/disc] | concentration at 4 h [14] [ng/mL] | zone of inhibition at 1000 µg/mL [1] [mm] | ED50 [3, 16] [mg/kg] | minimal effective dose [3, 17] [mg/kg] | zone of inhibition at 1000 µg/mL [5, 18] [mm] | Size of Zone of Inhibition [6] | zone of inhibition at 1000 µg/mL [13, 19] [mm] | also measured
CCCCCCCCCCCC(=O)Nc1cc(Cl)cc(C(=O)N[C@H]2C[C@@H](O)[C@@H](O)NC(=O)[C@@H]3[C@@H](O)[C@@H](C)CN3C(=O)[C@H]([C@@H](C)O)NC(=O)[C@H]([C@H](O)[C@@H](O)c3ccc(O)cc3)NC(=O)[C@@H]3C[C@@H](O)CN3C(=O)[C@H]([C@@H](C)O)NC2=O)c1Cl [Example 67] (Lauroyl-[X5][Orn(4R-OH,5R-OH)]T[Hyp][hTyr(3S-OH,4S-OH)]T[Pro(3S-OH,4S-Me)]; lactam 2-C) | 0.625 μg/disc | < 0.039 | – | 19 | – | – | 44 | 27 mm | 35 | concentration at 4 h ([15]; mouse, blood, po, 416 mg/kg): 530 ng/mL; ED50 [3]: 14 mg/kg; minimal effective dose [3, 22]: 10 mg/kg
CC(=O)Nc1ccc(C(=O)N[C@H]2C[C@@H](O)[C@@H](O)NC(=O)[C@@H]3[C@@H](O)[C@@H](C)CN3C(=O)[C@H]([C@@H](C)O)NC(=O)[C@H]([C@H](O)[C@@H](O)c3ccc(O)cc3)NC(=O)[C@@H]3C[C@@H](O)CN3C(=O)[C@H]([C@@H](C)O)NC2=O)cc1 [Example 77] (Ac-[4Abz][Orn(4R-OH,5R-OH)]T[Hyp][hTyr(3S-OH,4S-OH)]T[Pro(3S-OH,4S-Me)]; lactam 2-C) | > 20 μg/disc and 40 μg/disc | 0.312 | – | 17 | – | – | 51 | 24 mm | 24 | Blood Levels ([15]; mice, 416 mg/kg by gavage in 33% PEG 400-water, four hours after administration, bioassay vs. Aspergillus montevidensis A35137): 0 ng/mL; ED50 [3]: > 40 mg/kg; minimal effective dose [3, 22]: > 40 mg/kg
